The experiment concerns CEM cells HIV-1 protection, formazan growth assay. Nature of the experiment: NCI AIDS Antiviral Assay. The note with it: for IC50: measured here: growth of uninfected CEM cells. Put shortly: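 Human CEM cells, uninfected and HIV-1-infected, received five drug concentrations, and growth was read by soluble formazan assay. Compounds giving at least 50% protection were retested; reproducible 100% protection defined confirmed active.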

Several values for one entry are separate records, joined by “and”; a condition that tells them apart may be missing. Equal entries are not always repeated. Activity calls are given as the source filed them.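 Rule for the calls: active = compounds giving half or more protection of infected cells from virus-caused growth loss, again on retest; inactive = the rest.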 Some results are limits rather than exact numbers.

As usually defined, the EC50 is the concentration at which the effect is half-maximal. As usually defined, the IC50 is the point on the concentration scale where inhibition reaches its midpoint. Low values mean greater potency in that assay, high ones weaker potency in that assay.

For `O=c1oc2c3ccc4ccccc4c3n(CCN3CCCCC3)c2c2ccccc12`, the EC50 is over 8.71 µM and the IC50 amounted to 6.76 µM. For the molecule `NC(=O)NCc1c(C(N)=O)ncn1Cc1ccccc1`, the result was inactive.

In the case of `COCC[N+](CCNC(=O)c1cccc2c(N)c3cccc(C)c3nc12)(CCOC)Cc1ccc([N+](=O)[O-])cc1`, the EC50 is over 200 µM and the IC50 was 13.2 µM. Regarding `COc1ccc(NC(=O)C2=C(SC)C(C#N)C(=O)N=C2N)cc1` (stereo not drawn), the EC50 was over 200 µM and the IC50 came to 44.7 µM. On to `O=C(Cc1ccccc1CCO)NCCc1ccccc1`, for which the EC50 was over 200 µM and the IC50 is over 200 µM. As to `CC1=NN(C(=O)CC(=O)Nc2ccccc2)C(=O)C1N=Nc1ccc(S(N)(=O)=O)cc1` (stereo not drawn), the EC50 is over 151 µM and the IC50 is 75.9 µM. As for `NC(=S)SC1=NNC2(C(=O)N1)c1ccccc1-c1ccccc12`, the EC50 is over 200 µM and the IC50 came to 20.9 µM.

With `COc1c(Br)cc2ccccc2c1-c1c(OC)c(Br)cc2ccccc12`, the EC50 was 17.4 µM and the IC50 was over 100 µM. As for `CC(C)=CCC/C(C)=C/CC/C(C)=C/C1CCC(=O)C1(C)C` (stereo not drawn), the EC50 is over 85.1 µM and the IC50 is 41.7 µM. Turning to `C=C(C)[C@@H]1CC[C@]2(C(=O)O)CC[C@]3(C)[C@H](CC[C@@H]4[C@@]5(C)CC[C@H](O)C(C)(C)[C@@H]5CC[C@]43C)[C@@H]12`, the EC50 is over 200 µM and the IC50 is 20.9 µM.

For `CC(OC1CC(=O)CC2C(=O)C=CC(=O)C12)c1ccccc1` (stereo not drawn), the EC50 is over 603 µM and the IC50 stood at 3.31 µM. In the case of `NC(N)=N/N=C/c1ccc[nH]1`, the EC50 is over 200 µM and the IC50 is over 200 µM. `COC(=O)C(C(=O)C(=O)Nc1ccc(C)cc1C)c1nc2ccc([N+](=O)[O-])cc2[nH]c1=O` (stereo not drawn): the EC50 is over 575 µM and the IC50 was found to be 129 µM. As to `O=[N+]([O-])/C(C(Cl)=C(Cl)Cl)=C(/Cl)Sc1ccccc1`, the EC50 is over 200 µM and the IC50 was 1.23 µM. Take `Cc1cc([N+](=O)[O-])ccc1Sc1c2ccccc2nc2ccccc12`: the EC50 was over 20.9 µM and the IC50 is over 20.9 µM.

Turning to `NC1CC(=O)c2c(I)sc(I)c21` (stereo not drawn), the EC50 was over 200 µM and the IC50 amounted to 4.47 µM.

For the molecule `Oc1ccc2ccccc2c1C=Nc1ccc(SSc2ccc(N=Cc3c(O)ccc4ccccc34)cc2)cc1`, the EC50 was over 200 µM and the IC50 was 30.2 µM. For `CC1=CC(C)(C)N=C2SC(c3ccc(N)cc3)=NN12` the same measures were over 251 µM and 2 µM.

Take `CCCCCCC(=O)COP(=O)(OCC(=O)CCCCCC)OCC1OC(n2cc(C)c(=O)[nH]c2=O)CC1N=[N+]=[N-]` (stereo not drawn): the EC50 was 0.00107 µM and the IC50 was 2 µM.

For `CN(C)CCSc1ccc(-c2ccc(-c3ccc(SCCN(C)C)cc3)nn2)cc1`, the EC50 was 6.92 µM and the IC50 amounted to 8.13 µM.

Turning to `O=C1C2=C(c3ccccc31)C(c1ccc([N+](=O)[O-])cc1)NC(=S)N2` (stereo not drawn), the EC50 is over 138 µM and the IC50 came out at 28.2 µM. For the molecule `O=C(O)C(CS(=O)(=O)O)Nc1ccc([N+](=O)[O-])cc1[N+](=O)[O-]` (stereo not drawn), the EC50 is over 692 µM and the IC50 was over 692 µM. Take `CCOC(=O)/C(C#N)=C1/Sc2c(ncn(/N=C/c3ccc(OC)cc3)c2=O)N1c1ccccc1`: the EC50 is over 7.94 µM and the IC50 is over 7.94 µM. In the case of `CC(C)N=c1cc2n(-c3ccc(Cl)cc3)c3ccccc3nc-2cc1Nc1ccc(Cl)cc1`, the EC50 is over 100 µM and the IC50 is 9.12 µM. In the same order, the values of `CC1CCC2(CC1)CC(=O)N(N1CCOCC1)C(=O)C2` are over 200 µM and over 200 µM. Regarding `Cc1ccc(-n2cc(-c3ccc(Cl)cc3)c3c(N/N=C4\SCC(=O)N4C)ncnc32)cc1`, the EC50 is over 200 µM and the IC50 came to 8.32 µM. Consider `C=CCCON(C(=O)OC(C)(C)C)c1ccccc1`, for which the EC50 was over 200 µM and the IC50 is 57.5 µM.

Turning to `CC(=O)C1=C(O)C(c2ccccc2)c2ccccc21` (stereo not drawn), the EC50 is over 389 µM and the IC50 is 97.7 µM. In the same order, the values of `CC1(C)C2CCC13CS(=O)(=O)N(C(=O)[C@H]1CC=CCC1)C3C2` (stereo partly drawn) are over 112 µM and over 112 µM.

As for `c1ccc2c(c1)Sc1ccccc1C2=C1c2ccccc2Sc2ccccc21`, the EC50 is over 200 µM and the IC50 worked out at 10.7 µM. On to `CC1(C)CC(=O)C2=C(C1)OC1=C(CC(C)(C)CC1=O)C2c1ccccc1[N+](=O)[O-]` (stereo not drawn), for which the EC50 was over 200 µM and the IC50 is over 200 µM. As for `CCOC(=O)/C(C#N)=C/c1[nH]c(C(=O)OCc2ccccc2)c(C)c1C`, the result was inactive.

For `CCCc1noc(C(F)(F)Sc2ncccn2)n1`, the EC50 was over 200 µM and the IC50 is over 200 µM. As for `CNC(=S)SC1=NS(=O)(=O)c2ccccc2N1`, the EC50 was over 234 µM and the IC50 was found to be 174 µM. Regarding `COc1ccc(N2C(=O)c3c(c4[nH]c5ccccc5c4c4ccc(C(C)(C)C)cc34)C2=O)cc1`, the EC50 was over 11.5 µM and the IC50 is over 11.5 µM. In the case of `OCC1CC2C=CCC(C2)C1` (stereo not drawn), the result was inactive. As for `Cc1ccc(NC(=O)CC(=O)N2N=C(N(CCC#N)c3cccc(C)c3)CC2c2ccccc2)cc1` (stereo not drawn), the EC50 is over 75.9 µM and the IC50 was over 75.9 µM. With `O=S(Cc1ccccc1)/C(=C/n1c(=S)[nH]c2ccccc21)c1ccccc1` (stereo not drawn), the EC50 is over 200 µM and the IC50 is over 200 µM.

As to `O=C1c2c(c(-c3ccccc3)c(-c3ccccc3)c(-c3ccccc3)c2-c2ccccc2)C(=O)N1c1cccc(Br)c1`, the EC50 is over 3.31 µM and the IC50 is over 3.31 µM.

Turning to `COC(=O)c1ccc(OCCn2nnc(C(=O)NN)c2C(=O)NN)cc1`, the EC50 was over 100 µM and the IC50 is over 100 µM.

For the molecule `Cc1ccc(-c2n[nH]c(=O)n2/N=C\c2ccccc2O)cc1`, the EC50 was over 200 µM and the IC50 was over 200 µM. Consider `N#Cc1cc2c(cc1C#N)/C(=N\c1cccc(N)n1)N=C2Nc1cccc(N)n1`, for which the EC50 was over 200 µM and the IC50 was determined as 4.07 µM. `CCCC(=O)N/S(=N/S(=O)(=O)c1ccc(Cl)cc1)C(Cl)(Cl)Cl` (stereo not drawn) gave an EC50 of 162 µM and an IC50 of over 200 µM. In the case of `N#Cc1c(=O)n(-c2ccccc2)c(O)c2c(N)n[nH]c12`, the EC50 is over 200 µM and the IC50 was found to be 89.1 µM. Consider `COC(OC(CO)C(O)S(=O)(=O)O)C(O)S(=O)(=O)O` (stereo not drawn), for which the EC50 is over 200 µM and the IC50 is 32.4 µM. Consider `O=C(O)c1ccc2c(n1)-c1nc3nc4c(cc3cc1CC2)CCc1ccc(C(=O)O)nc1-4`, for which the EC50 is over 200 µM and the IC50 was found to be 21.9 µM. Consider `O=C(CCc1nc(=S)[nH][nH]1)Nc1cc(Cl)c(Cl)cc1Cl`, for which the EC50 is over 195 µM and the IC50 is over 195 µM.

In the case of `NNc1ncnc2cccc(Cl)c12`, the EC50 is over 200 µM and the IC50 is over 200 µM. As to `CC1(C)C2CCC13CS(=O)(=O)N1O[C@]13C(=O)O2` (stereo partly drawn), the EC50 is over 195 µM and the IC50 is over 195 µM. For the molecule `CC1(C)O[C@@H]2[C@@H](COC(C)(C)O[C@H]2C2SCCCS2)O1`, the EC50 was over 200 µM and the IC50 was over 200 µM. With `N#CCCN(CCC#N)c1ccc(/C=C2\N=C(c3ccccc3)N(c3ccccn3)C2=O)cc1`, the EC50 is over 200 µM and the IC50 was over 200 µM. Consider `O=C([CH-]C(=O)c1ccccc1)c1ccccc1.O=C([CH-]C(=O)c1ccccc1)c1ccccc1.[OH-].[OH-].[Ti+4]`, for which the EC50 was over 25.7 µM and the IC50 is over 25.7 µM.

On to `CC(CCC[C@H](C)CO)[C@H]1[C@@H](O)C(O)C2[C@@H]3C[C@@H](O)C4(O)C[C@@H](O)CC[C@]4(C)C3CC[C@@]21C` (stereo partly drawn), for which the EC50 is over 200 µM and the IC50 came to 107 µM. For `O=C1c2ccccc2C(=O)N1CC[P+](c1ccccc1)(c1ccccc1)c1ccccc1`, the EC50 was over 200 µM; the IC50 is > 200 µM and 107 µM.

For the molecule `O=c1oc2c(-c3c(O)c(=O)oc4ccccc34)cc(O)cc2s1`, the EC50 was over 209 µM and the IC50 is 97.7 µM. With `S=C1CC(c2ccc(Sc3ccccc3)cc2)=Nc2ccccc2N1`, the EC50 was over 200 µM and the IC50 is 75.9 µM.

For the molecule `C=C(C)[C@@]1(O)CCC[C@H]1NC(=O)OC(C)(C)C`, the EC50 was over 200 µM and the IC50 is over 200 µM. On to `Nc1nc2n[nH]nc2c(=O)[nH]1`, for which the EC50 was over 89.1 µM and the IC50 was determined as 0.302 µM. `CCCCCC(C)[P+](c1ccccc1)(c1ccccc1)c1ccccc1` (stereo not drawn): the EC50 is over 200 µM and the 50% inhibitory concentration (IC50) was 0.955 µM. Consider `N=c1n(CC(=O)NC23CC4CC(CC(C4)C2)C3)c2ccccc2n1Cc1ccc(Cl)cc1`, for which the EC50 was over 53.7 µM and the IC50 came to 4.79 µM.

As for `C[C@@H]1C(=O)CC2C(C)(C)CCC[C@]2(C)[C@@]12CC[C@]1(C=COC1)O2` (stereo partly drawn), the EC50 was over 50.1 µM and the IC50 is over 50.1 µM. Consider `C[P@](=O)(CCSc1ccccc1)c1ccccc1`, for which the EC50 is over 468 µM and the IC50 is over 468 µM.

On to `[Ni+2].[O-]/C(=N\N=C/c1cccc(F)c1)c1ccncc1.[O-]/C(=N\N=C\c1cccc(F)c1)c1ccncc1`, for which the EC50 is over 100 µM and the IC50 stood at 38 µM. On to `O=[N+]([O-])c1ccc([I+]c2ccccc2)cc1`, for which the EC50 is over 200 µM and the IC50 is 2.57 µM.

As to `N#C/C=C(/NC(=O)Nc1ccccc1)N1CCCC1`, the EC50 was over 200 µM and the IC50 was over 200 µM. `CN(C)C(=N)c1ccccc1`: the result was inactive.

Regarding `O=[N+]([O-])c1ccc(C2=Nc3ccccc3S(=O)C(c3ccccc3)C2)cc1` (stereo not drawn), the EC50 was over 7.24 µM and the IC50 was over 7.24 µM. Turning to `CC(=O)O[C@H]1CC(C)(C)C(=C=C/C(C)=C/C=C/C=C/C=C(C)/C=C2C=C(/C=C/[C@@]34O[C@]3(C)C[C@@H](O)CC4(C)C)C(=O)O/2)[C@](C)(O)C1`, the EC50 is over 151 µM and the IC50 was found to be 6.92 µM.

Regarding `Cc1cc(NS(=O)(=O)c2ccc(N=Nc3cc(S(=O)(=O)O)c4ccccc4c3O)cc2)ccc1N=Nc1ccc2cc(S(=O)(=O)O)cc(S(=O)(=O)O)c2c1`, the outcome was active.

The record behind these values is PubChem BioAssay AID179 (DTP/NCI, 2004).
